Data from US12005049B2, “Methods of preventing cancer metastasis” (MediciNova, Inc., priority 2021, dated 2024).

Experiments:
MIF = assay: Plasma level of MIF; conditions: found by the inventors; no method given
Omm1.3 cells [1] = assay: Transwell migration assay; format: cell-based; conditions: HCM+UM-exo as chemoattractant, 24 hrs, 25 μM ibudilast, 10 μM diacerein, 1.0 μM reparixin, 0.25 μM crizotinib
Description: FIG. 1A depicts trans-well migration assay results in which Omm1.3 cells were stimulated with hepatocyte conditioned media and uveal melanoma exosomes (HCM+UM-exo) in the presence of vehicle (DMSO), 10 μM diacerein, 1.0 μM reparixin, 0.25 μM crizotinib or 25 μM ibudilast.
FIG. 1B depicts migrated cell count under the microscope from the trans-well migration assay, three fields for each condition. Experiments were repeated three times ±sd, p<0.001.
Exosome isolation. Exosomes were isolated from UM cell lines kept in serum-free media for 24 hrs. The media was collected and subjected to serial centrifugation steps starting with a spin at 3,000×g to remove dead cells and cell debris. The supernatant from this step is spun at 20,000×g to pellet microvesicles and large EVs. Lastly, the supernatant from this step is centrifuged at 100,000×g to pellet the exosome fraction.
Transwell migration assay. The in vitro migration assays were performed with 5×104 Omm1.3 cells seeded in 500 μL serum-free medium on BioCoat Matrigel Invasion Chambers (BD Biosciences). The conditioned media of the hepatocytes treated or untreated with UM-exosome was used as chemoattractant in the lower chamber. The cells were also treated with vehicle (DMSO), 0.25 μM crizotinib or 25 μM ibudilast for 24 hrs. […] Images of stained cells were taken through a microscope and quantified by counting cells in triplicate samples.

GFP-Luc-Omm1.3 cells = assay: Metastatic uveal melanoma (UM) mouse model; format: in vivo; conditions: UM-exosome-educated mice, 7.5 mg/kg ibudilast i.p. daily
Description: FIG. 2A depicts quantification of bioluminescence intensity for each mouse in the abdominal region, while excluding bioluminescence in the eyes, in an evaluation of ibudilast in a metastatic UM mouse model. […] FIG. 2B depicts representative images of H&E-stained mouse liver sections from the metastatic UM mouse model. Mice were injected intravenously with vehicle (PBS) or 10 μg UM-exosome isolated from […] in 100 μL PBS for 7 days. Subsequently, GFP-Luc-Omm1.3 cells were retro-orbitally injected in the mice as described in Surriga et al. (Mol. Cancer Ther., 2013, 12:2817-26). Ibudilast was dissolved to a concentration of 1 mg/ml in physiological saline containing 10% v/v of polyoxyethylene hydrogenated castor oil 60 (HCO60). A week later, the mice were treated daily with vehicle or 7.5 mg/kg ibudilast i.p. and monitored for the development of metastasis. […] The mice were monitored weekly for luminescence with luciferin (Gold Biotechnology). After 7 weeks the livers and lungs were collected and analyzed for luminescence. Experiments were carried out under an Institutional Animal Care and Use Committee—approved (IACUC) protocol, and Institutional guidelines for the proper and humane use of animals were followed. Statistical significance was determined by 2-sample Student t-test.

[2] = Sanftner et al Xenobiotica 2009; cited from earlier work
Omm1.3 cells [3] = assay: Wound healing (scratch) assay, Omm1.3; format: cell-based; conditions: exposed to HCM+UM-exo, 25 μM ibudilast, 48 hours
Description: FIG. 1C depicts Omm1.3 cells in scratch assays, in which after the scratch, the cells were incubated with control HCM or with HCM of hepatocytes exposed to UM-exosomes with or without 25 μM ibudilast. Pictures were taken at zero time-point or after 48 hours under a microscope at 10× magnification. Wound healing assay. Omm1.3 and MP41 cells were scratched with a sterile 200 μL pipette tip. Cells were washed in PBS and replaced with fresh RPMI 1640 complete media, or hepatocyte conditioned media (HCM) pretreated with UM-exo. Images of the wounded area were recorded using an inverted phase-contrast microscope at the indicated time points.

MP41 cells = assay: Wound healing (scratch) assay, MP41; format: cell-based; conditions: exposed to HCM+UM-exo; data not shown
Description: Wound healing assay. Omm1.3 and MP41 cells were scratched with a sterile 200 μL pipette tip. Cells were washed in PBS and replaced with fresh RPMI 1640 complete media, or hepatocyte conditioned media (HCM) pretreated with UM-exo. Images of the wounded area were recorded using an inverted phase-contrast microscope at the indicated time points.

In the case of `CC(C)C(=O)c1c(C(C)C)nn2ccccc12` [ibudilast, 2-methyl-1-(2-(1-methylethyl)pyrazolo(1,5-a)pyridin-3-yl)1-propanone], the “plasma level of MIF” value (MIF) is reported as “lowers plasma level of MIF”, the “UM cell migration toward UM-exosome-stimulated hepatocyte conditioned media (HCM)” value (Omm1.3 cells [1]) is reported as “dramatically inhibited cell migration” and the “metastatic spread (bioluminescence signal intensity in the abdominal region)” value (GFP-Luc-Omm1.3 cells) is reported as “showed inhibition of metastatic spread”. For the same molecule, the “presence of cancer cell clusters in liver sections (H&E staining)” value (GFP-Luc-Omm1.3 cells) was “not in the livers”, the “bioluminescence in lungs and livers at necropsy” value (GFP-Luc-Omm1.3 cells; after 7 weeks) was “no bioluminescence signal in organs” and the CNS penetration [2] was “good. CNS penetration”. For the same molecule, the “wound healing ability of UM cell line Omm1.3” value (Omm1.3 cells [3]) was “suppressed the wound healing ability” and the “wound healing ability of UM cell line MP41” value (MP41 cells) was “suppressed the wound healing ability”.
